SMILES strings stand for the structures.

As a reminder, the melting point is the temperature, or range, at which the solid turns liquid. `C[C@H](OC(=O)c1ccc(C(=O)Nc2cc([Si](C)(C)C)cc([Si](C)(C)C)c2)cc1)C(=O)O`: the melting point lay within 198 to 200 °C.
The same measure for `CC1(C)CCC(C)(C)c2cc(NC(=O)c3ccc(/C=C/C(=O)O)cc3)ccc21` [Example 24, 4-[(5,6,7,8-Tetrahydro-5,5,8,8-tetramethyl-2-naphthyl)carbamoyl]cinnamic acid]: 226 to 227 °C; for `CC1(C)CCC(C)(C)c2cc(NC(=O)c3ccc(C=O)cc3)ccc21` [Example 23, 4-Formyl-N-(5,6,7,8-tetrahydro-5,5,8,8-tetramethyl-2-naphthyl)benzamide]: 185.5 to 186.5 °C.

Values taken from patent US8633335B2, “Retinoid prodrug compound” (Research Founation Itsuu Laboratory, priority 2007, dated 2014).
